Reference: patent US10246456B2, “IRAK4 inhibiting agents” (BIOGEN MA INC., priority 2014, dated 2019)

Tests used:
IL-6 in A549 cells = assay: Cell-based IL-6 ELISA assay in IL-1beta stimulated A549 cells; settings: 2 ng/ml human IL-1beta overnight
Summary of the method: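 A549 cells (2.5×10^4/well, DMEM/10% FBS) pretreated 30 min at 37 C with compound, 10-point serial dilution from 10 uM, then stimulated overnight with 2 ng/ml human IL-1beta. Secreted IL-6 in supernatant quantified by human IL-6 ELISA.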

IRAK4 = IRAK4 (Homo sapiens (Human), UniProt Q9NWZ3); assay: IRAK-4 AlphaScreen biochemical kinase assay; settings: 1 nM IRAK4, 1 mM ATP, 3.5 h at RT
IRAK4, sequence (Q9NWZ3 whole entry, species assumed): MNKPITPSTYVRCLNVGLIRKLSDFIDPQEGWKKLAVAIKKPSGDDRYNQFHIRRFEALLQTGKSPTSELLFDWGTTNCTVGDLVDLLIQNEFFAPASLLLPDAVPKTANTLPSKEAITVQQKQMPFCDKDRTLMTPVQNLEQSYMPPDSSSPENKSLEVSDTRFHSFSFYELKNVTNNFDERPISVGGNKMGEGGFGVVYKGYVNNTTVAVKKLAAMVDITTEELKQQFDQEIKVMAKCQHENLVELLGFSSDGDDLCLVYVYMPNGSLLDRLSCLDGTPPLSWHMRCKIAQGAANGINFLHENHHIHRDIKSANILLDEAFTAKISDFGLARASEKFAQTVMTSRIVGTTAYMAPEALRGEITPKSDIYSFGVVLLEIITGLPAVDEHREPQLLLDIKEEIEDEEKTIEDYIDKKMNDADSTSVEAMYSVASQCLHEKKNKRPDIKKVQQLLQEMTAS
Summary of the method: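 AlphaScreen read-out: streptavidin beads bind the biotinylated peptide and protein A beads bind the anti-phosphothreonine antibody, so energy transfer reports phosphorylation of the peptide. The kinase is human IRAK-4.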

SMILES | EC50 (IL-6 in A549 cells) [nM] | IC50 (IRAK4) [nM]
COCCC[C@H](N)c1cccc(-c2cc(OC)c3cnn(-c4cccc(CO)n4)c3c2)n1 [Example 509, (S)-(6-(6-(6-(1-amino-4-methoxybutyl)pyridin-2-yl)-4-methoxy-1H-indazol-1-yl)pyridin-2-yl)methanol] | ≤ 1000 | < 100
CCC[C@H](N)c1cccc(-c2cc(OCC)c3cnn(-c4cccc(CO)n4)c3c2)n1 [Example 464, (S)-(6-(6-(6-(1-aminobutyl)pyridin-2-yl)-4-ethoxy-1H-indazol-1-yl)pyridin-2-yl)methanol] | ≤ 1000 | < 100
CCC[C@H](N)c1cccc(-c2cc(N3CCN(C)CC3)c3cnn(-c4cccc(CO)n4)c3c2)n1 [Example 343, (S)-(6-(6-(6-(1-aminobutyl)pyridin-2-yl)-4-(4-methylpiperazin-1-yl)-1H-indazol-1-yl)pyridin-2-yl)methanol] | ≤ 1000 | < 100
CC[C@H](N)c1cccc(-c2cc(C#N)c3cnn(-c4cccc(CO)n4)c3c2)n1 [Example 533, (S)-6-(6-(1-aminopropyl)pyridin-2-yl)-1-(6-(hydroxymethyl)pyridin-2-yl)-1H-indazole-4-carbonitrile] | ≤ 1000 | < 100
CCC[C@H](N)c1cccc(-c2cc(N3CCC(C(=O)O)CC3)c3cnn(-c4cccc(CO)n4)c3c2)n1 [Example 350, (S)-1-(6-(6-(1-aminobutyl)pyridin-2-yl)-1-(6-(hydroxymethyl)pyridin-2-yl)-1H-indazol-4-yl)piperidine-4-carboxylic acid] | 1000 to 10000 | < 100
CCC[C@H](N)c1cccc(-c2cc(OCCOC)c3cnn(-c4cccc(CO)n4)c3c2)n1 [Example 476, (S)-(6-(6-(6-(1-aminobutyl)pyridin-2-yl)-4-(2-methoxyethoxy)-1H-indazol-1-yl)pyridin-2-yl)methanol] | ≤ 1000 | < 100
C[C@H](N)c1cccc(-c2cc(-c3ccccn3)c3cnn(-c4cccc(CO)n4)c3c2)n1 [Example 373, (S)-(6-(6-(6-(1-aminoethyl)pyridin-2-yl)-4-(pyridin-2-yl)-1H-indazol-1-yl)pyridin-2-yl)methanol] | ≤ 1000 | < 100
CCOc1cc(-c2cccc([C@H](N)c3ccccc3)n2)cc2c1cnn2-c1cccc(CO)n1 [Example 439, (R)-(6-(6-(6-(amino(phenyl)methyl)pyridin-2-yl)-4-ethoxy-1H-indazol-1-yl)pyridin-2-yl)methanol] | ≤ 1000 | < 100
C[C@H](N)c1cccc(-c2cc(-n3ccc(C(F)(F)F)n3)c3cnn(-c4cccc(CO)n4)c3c2)n1 [Example 356, (S)-(6-(6-(6-(1-aminoethyl)pyridin-2-yl)-4-(3-(trifluoromethyl)-1H-pyrazol-1-yl)-1H-indazol-1-yl)pyridin-2-yl)methanol] | 1000 to 10000 | < 100
CCC[C@H](N)c1cccc(-c2cc(C3CCOCC3)c3cnn(-c4cccc(CO)n4)c3c2)n1 [Example 425, (S)-(6-(6-(6-(1-aminobutyl)pyridin-2-yl)-4-(tetrahydro-2H-pyran-4-yl)-1H-indazol-1-yl)pyridin-2-yl)methanol] | ≤ 1000 | < 100
CCOc1cc(-c2cccc([C@@H](N)C3CC3)n2)cc2c1cnn2-c1cncc(CO)n1 [Example 501, (S)-(6-(6-(6-(amino(cyclopropyl)methyl)pyridin-2-yl)-4-ethoxy-1H-indazol-1-yl)pyrazin-2-yl)methanol] | ≤ 1000 | < 100
CCC[C@H](N)c1cccc(-c2cc(C3CCN(C(C)=O)CC3)c3cnn(-c4cccc(CO)n4)c3c2)n1 [Example 515, (S)-1-(4-(6-(6-(1-aminobutyl)pyridin-2-yl)-1-(6-(hydroxymethyl)pyridin-2-yl)-1H-indazol-4-yl)piperidin-1-yl)ethanone] | ≤ 1000 | < 100
CCC[C@H](N)c1cccc(-c2ccc3cnn(-c4cncc(CO)n4)c3c2)n1 [Example 399, (S)-(6-(6-(6-(1-aminobutyl)pyridin-2-yl)-1H-indazol-1-yl)pyrazin-2-yl)methanol] | ≤ 1000 | < 100
CCC[C@H](N)c1cccc(-c2cc(N3CCC(F)(F)C3)c3cnn(-c4cccc(CO)n4)c3c2)n1 [Example 333, (S)-(6-(6-(6-(1-aminobutyl)pyridin-2-yl)-4-(3,3-difluoropyrrolidin-1-yl)-1H-indazol-1-yl)pyridin-2-yl)methanol] | ≤ 1000 | < 100
C[C@H](N)c1cccc(-c2cc(-c3ncccn3)c3cnn(-c4cccc(CO)n4)c3c2)n1 [Example 364, (S)-(6-(6-(6-(1-aminoethyl)pyridin-2-yl)-4-(pyrimidin-2-yl)-1H-indazol-1-yl)pyridin-2-yl)methanol] | ≤ 1000 | < 100
C[C@H](N)c1ccnc(-c2ccc3cnn(-c4cccc(CO)n4)c3c2)n1 [Example 411, (S)-(6-(6-(4-(1-aminoethyl)pyrimidin-2-yl)-1H-indazol-1-yl)pyridin-2-yl)methanol] | ≤ 1000 | < 100
CCC[C@H](N)c1cccc(-c2cc(N3CCS(=O)(=O)CC3)c3cnn(-c4cccc(CO)n4)c3c2)n1 [Example 337, (S)-4-(6-(6-(1-aminobutyl)pyridin-2-yl)-1-(6-(hydroxymethyl)pyridin-2-yl)-1H-indazol-4-yl)thiomorpholine 1,1-dioxide] | ≤ 1000 | < 100
CCC[C@H](N)c1cccc(-c2cc(N3CCCC(C(=O)O)C3)c3cnn(-c4cccc(CO)n4)c3c2)n1 (stereo partly drawn) [Example 349, 1-(6-(6-((S)-1-aminobutyl)pyridin-2-yl)-1-(6-(hydroxymethyl)pyridin-2-yl)-1H-indazol-4-yl)piperidine-3-carboxylic acid] | ≤ 1000 | < 100
C[C@H](N)c1cccc(-c2cc(-c3cnn(C)c3)c3cnn(-c4cccc(CO)n4)c3c2)n1 [Example 367, (S)-(6-(6-(6-(1-aminoethyl)pyridin-2-yl)-4-(1-methyl-1H-pyrazol-4-yl)-1H-indazol-1-yl)pyridin-2-yl)methanol] | ≤ 1000 | < 100
CCC[C@H](N)c1cccc(-c2cc(OCCCOC)c3cnn(-c4cccc(CO)n4)c3c2)n1 [Example 456, (S)-(6-(6-(6-(1-aminobutyl)pyridin-2-yl)-4-(3-methoxypropoxy)-1H-indazol-1-yl)pyridin-2-yl)methanol] | ≤ 1000 | < 100
C[C@H](N)c1cccc(-c2cc(-n3ccnc3)c3cnn(-c4cccc(CO)n4)c3c2)n1 [Example 354, (S)-(6-(6-(6-(1-aminoethyl)pyridin-2-yl)-4-(1H-imidazol-1-yl)-1H-indazol-1-yl)pyridin-2-yl)methanol] | ≤ 1000 | < 100
CC[C@H](N)c1cccc(-c2cc(OCCCOC)c3cnn(-c4cccc(CO)n4)c3c2)n1 [Example 457, (S)-(6-(6-(6-(1-aminopropyl)pyridin-2-yl)-4-(3-methoxypropoxy)-1H-indazol-1-yl)pyridin-2-yl)methanol] | ≤ 1000 | < 100
Cc1csc(-c2cc(-c3cccc([C@H](C)N)n3)cc3c2cnn3-c2cccc(CO)n2)n1 [Example 375, (S)-(6-(6-(6-(1-aminoethyl)pyridin-2-yl)-4-(4-methylthiazol-2-yl)-1H-indazol-1-yl)pyridin-2-yl)methanol] | ≤ 1000 | < 100
